Data: US20190255175A1, “ACTIVATION OF TRPA1+ NOCICEPTORS IN THE VAGUS NERVE ATTENUATES SYSTEMIC INFLAMMATION” (THE FEINSTEIN INSTITUTE FOR MEDICAL RESEARCH, priority 2018, published 2019)

Assays:
[1] = target: T1, TRPA1+ fibers of the vagus nerve (Mus musculus, UniProt Q8BLA8); assay: Optovin applied to the vagus nerve with 405 nm optical stimulation, followed by LPS endotoxemia; serum TNF; assay type: in vivo, mice
T1 construct: optovin was applied directly to nerve; from tissue; also TRPA1 KO and α7 nAChR KO groups
T1 sequence (Q8BLA8 whole entry): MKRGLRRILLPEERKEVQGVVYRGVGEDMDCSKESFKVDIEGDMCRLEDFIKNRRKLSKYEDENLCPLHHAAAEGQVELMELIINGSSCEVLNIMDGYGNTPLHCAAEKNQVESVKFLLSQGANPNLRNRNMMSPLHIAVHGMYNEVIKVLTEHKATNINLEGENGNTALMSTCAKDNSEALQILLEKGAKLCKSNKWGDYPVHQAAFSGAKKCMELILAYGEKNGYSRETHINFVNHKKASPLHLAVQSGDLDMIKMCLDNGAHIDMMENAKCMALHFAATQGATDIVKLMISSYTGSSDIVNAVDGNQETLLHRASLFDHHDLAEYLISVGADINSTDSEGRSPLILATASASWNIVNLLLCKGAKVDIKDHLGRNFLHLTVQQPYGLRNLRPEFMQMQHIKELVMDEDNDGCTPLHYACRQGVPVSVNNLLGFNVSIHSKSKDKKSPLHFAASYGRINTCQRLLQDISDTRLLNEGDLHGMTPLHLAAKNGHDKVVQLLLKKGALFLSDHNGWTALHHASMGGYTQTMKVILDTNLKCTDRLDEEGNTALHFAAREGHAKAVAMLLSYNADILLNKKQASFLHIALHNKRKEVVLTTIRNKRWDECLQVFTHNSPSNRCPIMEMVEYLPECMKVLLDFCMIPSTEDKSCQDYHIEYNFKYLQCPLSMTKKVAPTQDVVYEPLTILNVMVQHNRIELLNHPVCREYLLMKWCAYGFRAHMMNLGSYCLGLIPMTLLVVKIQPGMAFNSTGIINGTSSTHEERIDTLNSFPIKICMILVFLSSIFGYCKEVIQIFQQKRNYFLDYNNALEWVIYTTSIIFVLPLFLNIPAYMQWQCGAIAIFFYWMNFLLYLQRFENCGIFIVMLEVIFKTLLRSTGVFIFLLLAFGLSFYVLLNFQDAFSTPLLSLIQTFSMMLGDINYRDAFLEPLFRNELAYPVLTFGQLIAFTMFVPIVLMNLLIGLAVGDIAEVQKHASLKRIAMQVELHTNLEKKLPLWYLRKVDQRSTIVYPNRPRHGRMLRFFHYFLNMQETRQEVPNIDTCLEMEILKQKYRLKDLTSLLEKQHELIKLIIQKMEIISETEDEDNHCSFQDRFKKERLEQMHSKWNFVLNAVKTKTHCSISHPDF
Experimental: (§1) FIG. 1A-1C. Stimulation of sensory TRPA1+ vagus fibers attenuates serum TNF levels in endotoxemic mice. A) Wild type mice were treated with optovin directly to the vagus nerve, followed by exposure to no light (n=9) or 405 nm light (n=10). Mice were also subjected to a proximal vagotomy (n=12) cutting off afferent signaling to the brain. These mice were also treated with optovin and stimulated with 405 nm light. B) TRPA1 KO mice were treated with optovin directly to the vagus nerve. The mice were then treated with no light (n=9) or 405 nm light (n=8). C) α7 KO mice were treated with optovin directly to the vagus nerve. The mice were then treated with no light (n=10) or 405 nm light (n=12). Two asterisks indicate p<0.01.
(§2) Optical stimulation was generated by Thor Labs LED driver DC4100, with a 405 nm LED model M405L3 (Newton, N.J.). Sham mice underwent surgical control up to the point of identifying the cervical vagus nerve, without isolating it from the bundle. In both conditions 2 μl of optovin was applied directly on the nerve for 2 minutes prior to stimulation. Sham animals received no light applied to the nerve. The stimulated group received 405 nm light 1000 mA, 10 hz, with a 10% duty cycle for 5 minutes with an approximate power of 80-85 μW. Animals then recovered for 2 hours and were administered LPS (8 mg/kg) via intraperitoneal (ip) injection. Mice were euthanized 1.5 hours after LPS administration, with serum collected.
(§3) All vagotomized animas had their vagus nerve isolated. Prior to the vagotomy a 6.0 suture was tied around the vagus nerve. The nerve was then cut proximally or above (blocking left vagus nerve signaling to the brain while signaling to the periphery remained intact) to where 2 μl of optovin was to be added. All mice were stimulated using the same parameters as previously indicated. Animals then recovered for 2 hours and were administered LPS (8 mg/kg) via intraperitoneal (ip) injection. Mice were euthanized 1.5 hours after LPS administration, with serum collected.
(§4) Vagus nerve stimulation has been used as a treatment for peripheral inflammation in both rodents and humans^18-21. TRPA1 is an ion channel that has been indicated in neural sensing of inflammation within the skin and lungs 22-24. To determine TRPA1's role in the inflammatory reflex, photochemical stimulation of TRPA1+ fibers of the vagus nerve was carried out using a molecule called optovin. Optovin selectively binds to TRPA1 making it photoactive to 405 nm light^25. To directly stimulate the TRPA1+ vagus nerve fibers, optovin was applied directly to nerve, with one group unstimulated and one group stimulated with the 405 nm light for 5 minutes with LPS (8 mg/kg) administer 2 hours later. […]

[2] = tested on: TRPA1+ fibers of the vagus nerve; assay: as above; assay type: in vivo, mice; settings: TRPA1 KO mice; optovin + 405 nm light vs no light; LPS 8 mg/kg
Experimental: as §1, §2, §3, §4

[3] = tested on: TRPA1+ neurons; assay: Pharmacological stimulation of TRPA1+ neurons with polygodial in endotoxemic mice; TNF by ELISA; assay type: in vivo; settings: TRPA1 KO mice; polygodial 5 mg/kg ip 30 min before endotoxin 0.1 mg/kg ip; collected after 90 min
Experimental: (§5) FIG. 2A-2D. […] A) Serum: wildtype mice received intraperitoneal administration of polygodial (5 mg/kg) (n=6) or vehicle (n=5). After 30 minutes, mice were subjected to endotoxemia (0.1 mg/kg endotoxin, i.p.). Blood was collected after 90 min and serum TNF levels were determined by ELISA. *p<0.05. B) Spleen: wildtype mice received intraperitoneal administration of polygodial (5 mg/kg) (n=7) or vehicle (n=6). After 30 minutes, mice were subjected to endotoxemia (0.1 mg/kg endotoxin, i.p.). Spleens were collected after 90 min and serum TNF levels were determined by ELISA. *p<0.05. C, D) Pharmacological Stimulation of TRPA1+ neurons fail to attenuate TNF levels in endotoxemic TRPA1 KO mice. C) Serum: TRPA1 KO mice received intraperitoneal administration of polygodial (5 mg/kg) (n=9) or vehicle (n=8). After 30 minutes, mice were subjected to endotoxemia (0.1 mg/kg endotoxin, i.p.). Blood was collected after 90 min and serum TNF levels were determined by ELISA. D) Spleen: TRPA1 KO mice received intraperitoneal administration of polygodial (5 mg/kg) (n=9) or vehicle (n=8). After 30 minutes, mice were subjected to endotoxemia (0.1 mg/kg endotoxin, i.p.). Spleens were collected after 90 min and serum TNF levels were determined by ELISA.

[4] = target: T2, TRPA1+ neurons (Mus musculus, UniProt Q8BLA8); assay: as above; assay type: in vivo; settings: wildtype mice; polygodial 5 mg/kg ip 30 min before endotoxin 0.1 mg/kg ip; collected after 90 min
T2 construct: from tissue; host or cells: living mice (wild type and TRPA1 KO), systemic i.p. dosing; TRPA1+ neurons
T2 sequence (Q8BLA8 whole entry): as above
Experimental: as §5

[5] = tested on: nodose ganglion neurons; assay: Whole-cell patch clamp recordings of nodose ganglion neurons; assay type: cell-based, mice; settings: nodose neurons held at −65 mV; IL-1β 20 μg/ml
Experimental: Whole-cell patch clamp recordings were made with glass pipettes pulled on a P-97 electrode puller (Sutter Instruments, Novato, Calif.). The resistance of the pipettes was 2-4 MΩ when filled with an intracellular solution (in mM: CsCl 140, HEPES 10, EGTA 5, Mg-ATP 2, NaGTP 0.3, MgCl2 2, Phosphocreatine 10, pH 7.25 adjusted with CsOH). Cells were superfused at a rate of 2 ml/min with an external bath solution containing the following (in mM): 150 NaCl, 2.5 KCl, 10 HEPES, 10 D-glucose, 2 CaCl2, and 1 MgCl2, pH 7.3-7.4. Experiments were performed at room temperature (22-24° C.). Currents from neurons were monitored with an Multiclamp 700B amplifier (Molecular Devices, Union City, Calif.), acquired through Digidata 1550B (Molecular Devices) onto a computer using pClamp 11 software (Molecular Devices). Data were analyzed using Clampfit 11 (Molecular Devices). All chemicals used for electrophysiological recordings were purchased from Sigma. All drugs and solutions were made fresh from drug stock solutions.
Using patch clamp recordings, IL-1β responses were recorded in nodose ganglion neurons. Application of IL-1β (20 μg/ml) induced calcium influx as indicated by increase of fluorescence in 6 out of 332 (1.8%) sensory nodose ganglion neurons from VGlut2-GCaMP3 mice. Next, whole-cell patch clamp recordings were carried out on the same neurons that responded to IL-1β in calcium influx analysis. When the membrane potential was held at −65 mV, bath application of IL-1β (20 μg/ml) produced slow inward currents in 4 out of 332 (1.2%) nodose neurons. The amplitude of IL-1β induced currents are 108±23 pA (n=4). […] In current-clamp mode, IL-1β reduced action potential threshold from −25±2 mV to −31±3 mV (n=4). […] To further determine the potential interaction of TRPA1 with IL-1β, nodose ganglion neurons from TRPA1 KO mice were examined in a culture system. […] IL1R1 co-localizes with TRPA1 on nodose ganglion neurons, as was determined using immunohistochemical staining.

Q: Which “TNF levels in response to LPS” value ([1]; proximally vagotomized mice, optovin + 405 nm light, LPS 8 mg/kg) does the source give for Cc1cc(/C=C2/SC(=S)NC2=O)c(C)n1-c1cccnc1 [optovin] here?
A: no significant reduction in TNF levels

Q: What about the “TNF levels in response to LPS” value ([1]; wild type mice, optovin on vagus nerve, 405 nm light 5 min vs no light, LPS 8 mg/kg ip 2 h later, serum 1.5 h after LPS) of the same compound?
A: significantly reduced TNF levels

Q: And the “serum TNF levels” value ([1]; α7 nAChR KO mice, optovin + 405 nm light vs no light, LPS 8 mg/kg)?
A: did not significantly reduce serum TNF levels

Q: And the “TNF levels in response to LPS” value [2]?
A: no significant reductions in TNF levels

Q: What does the source list for CC1(C)CCC[C@]2(C)[C@@H](C=O)C(C=O)=CC[C@@H]12 [polygodial]?
A: TNF levels in serum [3]: no significant reduction; TNF levels in spleen [3]: no significant reduction; TNF levels in serum [4]: attenuates TNF levels; TNF levels in spleen [4]: attenuates TNF levels

Q: Which “Block of inward currents after IL-1β application” value [5] does the source give for Cn1cnc2ncn(Cc3nc(CCc4ccc(Cl)cc4)no3)c(=O)c21 [AM0902, reference compound] here?
A: completely blocked
